The values that follow come from US8012492B2, “In vitro model of latent mycobacterial infection” (University of Central Florida Research Foundation, Inc., priority 2007, dated 2011).

In test [1] the test system is WT-H37Rv. It counts as cell-based, Mycobacterium tuberculosis.
In test [2] the test system is Mtb within TDM. In kind it is cell-based, Mycobacterium tuberculosis.

For `CO[C@H]1/C=C/O[C@@]2(C)Oc3c(C)c(O)c4c(O)c(c(/C=N/N5CCN(C)CC5)c(O)c4c3C2=O)NC(=O)/C(C)=C\C=C\[C@H](C)[C@H](O)[C@@H](C)[C@@H](O)[C@@H](C)[C@H](OC(C)=O)[C@@H]1C` [Rif, Rifampicin], in test [1], the Rif resistant cells entry is given as “about 10%”, the Rif-resistance entry is given as “up to 25%” and the Rif-resistant cells entry is “about 0.03%”. In test [2], the “Development of Rif resistance, share of the Mtb population” value was “about 25%”.

Turning to `NNC(=O)c1ccncc1` [INH], in test [2], the “Resistance of Mtb recovered from TDM to antibiotics” value is “showed resistance to both antibiotics”.
